Measurements published in EPA's ToxValDB 9.5 (doi:10.2903/j.efsa.2008.183r).
Values after ≈ are worked out from the molar mass of the structure shown.

Assays:
Anas platyrhynchos = settings: short-term; oral; feed; mortality
Colinus virginianus = settings: acute, oral, mortality; for LC50: diet
Coturnix japonica = settings: reproduction developmental; reproduction
Rattus norvegicus = settings: inhalation
Oncorhynchus mykiss = settings: acute; duration: 96 hours; mortality
[1] = chronic, duration: 2 years, no effects
[2] = reproduction developmental, mortality
[3] = subchronic, duration: 90 days, no effects

| SMILES | LC50 (Anas platyrhynchos) | LC50 (Colinus virginianus) | LD50 (Colinus virginianus) | NOEC (Coturnix japonica) | NOAEL (Rattus norvegicus; [1]) | NOAEL (Rattus norvegicus; [2]) | NOAEL (Rattus norvegicus; [3]) | LC50 (Oncorhynchus mykiss) |
| --- | --- | --- | --- | --- | --- | --- | --- | --- |
| [PH]=[Zn].[PH]=[Zn].[Zn] [Zinc phosphide (Zn3P2)] | 2880 mg/kg | 469 mg/kg | < 35 mg/kg-day | < 3.5 mg/kg-day | – | – | – | – |
| [Ca+2].[Ca+2].[Ca+2].[P-3].[P-3] [Tricalcium diphosphide] | 2040 mg/kg | 330 mg/kg | < 24.7 mg/kg-day | – | 1.1 mg/kg-day | 1.9 mg/kg-day | 1.1 mg/kg-day | – |
| P [Phosphine] | 762 mg/kg | 124 mg/kg | ≤ 9.2 mg/kg-day | – | 1.1 mg/kg-day | 1.9 mg/kg-day | 1.1 mg/kg-day | 4.68 ng/mL (≈ 0.138 µM) |
